Data on two compounds can be found in patent publication US12042539B2, “Compositions and kits for Omeprazole suspension” (Azurity Pharmaceuticals, Inc., priority 2019, dated 2024).

Molecules are shown by their SMILES. ≈ marks a conversion by molar mass, not a printed value. Read-outs that look alike come from different tables or passages of the source.

Series [1] is described as follows: Phase solubility of omeprazole at different concentrations of poloxamer 188. It is filed as physicochemical. As to conditions: for solubility: thermodynamic from solid, read-out: Soluble fraction.
Series [2] is described as follows: Related substance (omeprazole impurities) at stability time points. The note with it: Omeprazole API. It is filed as physicochemical. From the text: Monitoring the trend of increase in chemical impurities/related substances is important with respect to stability of a formulation. Related substance data developed during stability studies of a formulation play a crucial role with respect to determining a useable shelf life for a formulation.
Specification: • a. […] 5-Methoxy-1H-Benzimidazol-2-thiol: NMT 0.50% • c. Omeprazole sulphone N-Oxide: NMT 0.50% • d. Omeprazole N-Oxide: NMT 0.50% • e. Omeprazole Sulphone: NMT 0.50% • f Omeprazole 4-Chloro analog (IMP-H): NMT 0.50% • g. Sulphide (Ufiprazole): NMT 0.50% • h. Desmethoxy Omeprazole: NMT 0.50% • i. Any other individual impurity: NMT 0.20% • j. Total impurities: NMT 2.0%

The conditions of series [3]: cited from earlier work.
Series [4] addresses P-glycoprotein (Homo sapiens, UniProt P08183). As to conditions: cited from earlier work.
The conditions of series [5]: cited from earlier work. This is another data set of the same source.
The nature of series [6]: PXRD of reconstituted suspensions (polymorphic form of omeprazole API). It is filed as physicochemical. As to conditions: 3M and 6M Day 30, 25° C./60% RH and 2-8° C. As to the method:
To evaluate the polymorphic characteristic of omeprazole API during reconstitution stability studies, the reconstituted suspensions were analyzed by X-ray diffraction (XRD) at 3M and 6M time points at 25° C./60% RH and 2-8° C. conditions.

For series [7] the following is noted: increase in poloxamer concentration beyond 10 mg/mL; cited from earlier work.

Sequence of P-glycoprotein (P08183 whole entry): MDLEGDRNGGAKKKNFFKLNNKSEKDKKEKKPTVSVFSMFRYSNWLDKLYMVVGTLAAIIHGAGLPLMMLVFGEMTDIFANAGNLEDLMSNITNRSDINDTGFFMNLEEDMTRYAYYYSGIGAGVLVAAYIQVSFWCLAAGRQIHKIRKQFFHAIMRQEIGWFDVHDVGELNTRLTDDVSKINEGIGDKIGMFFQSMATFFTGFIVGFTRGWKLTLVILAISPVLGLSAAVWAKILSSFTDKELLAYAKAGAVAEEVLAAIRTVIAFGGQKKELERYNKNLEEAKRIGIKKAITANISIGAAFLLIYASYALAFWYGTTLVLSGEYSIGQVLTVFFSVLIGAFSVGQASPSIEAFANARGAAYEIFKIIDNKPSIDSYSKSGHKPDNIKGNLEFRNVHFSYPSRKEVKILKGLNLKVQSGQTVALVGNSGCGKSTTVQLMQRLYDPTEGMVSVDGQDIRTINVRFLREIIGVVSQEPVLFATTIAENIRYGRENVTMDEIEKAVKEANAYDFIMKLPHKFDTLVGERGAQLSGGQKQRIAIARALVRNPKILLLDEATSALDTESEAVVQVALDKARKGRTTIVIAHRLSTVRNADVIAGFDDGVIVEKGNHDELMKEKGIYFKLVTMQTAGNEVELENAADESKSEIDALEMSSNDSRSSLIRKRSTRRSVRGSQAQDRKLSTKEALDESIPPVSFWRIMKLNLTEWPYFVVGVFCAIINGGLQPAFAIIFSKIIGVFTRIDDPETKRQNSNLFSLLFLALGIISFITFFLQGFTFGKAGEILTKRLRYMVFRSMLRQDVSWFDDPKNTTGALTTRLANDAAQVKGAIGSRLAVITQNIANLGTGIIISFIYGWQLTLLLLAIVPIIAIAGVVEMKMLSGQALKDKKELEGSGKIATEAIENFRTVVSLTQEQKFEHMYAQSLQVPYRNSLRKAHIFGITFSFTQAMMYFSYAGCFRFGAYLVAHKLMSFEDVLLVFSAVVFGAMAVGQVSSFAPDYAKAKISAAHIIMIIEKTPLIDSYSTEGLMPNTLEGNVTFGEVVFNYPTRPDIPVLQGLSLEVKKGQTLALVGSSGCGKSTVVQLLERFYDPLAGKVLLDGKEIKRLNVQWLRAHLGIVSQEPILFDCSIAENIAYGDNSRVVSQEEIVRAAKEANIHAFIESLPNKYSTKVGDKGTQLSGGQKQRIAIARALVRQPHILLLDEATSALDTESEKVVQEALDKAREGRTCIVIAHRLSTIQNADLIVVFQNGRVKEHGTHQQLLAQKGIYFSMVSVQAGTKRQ

Regarding `COc1ccc2[nH]c([S+]([O-])Cc3ncc(C)c(OC)c3C)nc2c1` (centres unmarked) [Omeprazole], the “Soluble fraction (%)” value in series [1] (0 % w/v Poloxamer Content) stood at 10.9%; in series [1] (0.5 % w/v Poloxamer Content), 15.6%; in series [1] (1 % w/v Poloxamer Content), 17.1%; in series [1] (2 % w/v Poloxamer Content), 47.8%; in series [1] (4 % w/v Poloxamer Content), 47.3%. Also, the solubility in series [1] (0% w/v poloxamer 188 (base solvent not stated), 0 % w/v Poloxamer Content) was 218 µg/mL (≈ 631 µM); in series [1] (poloxamer 188 at 2% w/v (base solvent not stated), aqueous with cosolvent or surfactant or cyclodextrin, 2 % w/v Poloxamer Content) it was 957 µg/mL (≈ 2770 µM); in series [1] (poloxamer 188 at 4% w/v (base solvent not stated), aqueous with cosolvent or surfactant or cyclodextrin, 4 % w/v Poloxamer Content), 946 µg/mL (≈ 2740 µM); in series [1] (poloxamer 188 solution (0.5% w/v), aqueous with cosolvent or surfactant or cyclodextrin, 0.5 % w/v Poloxamer Content), 313 µg/mL (≈ 906 µM); in series [1] (poloxamer 188 solution (1% w/v), aqueous with cosolvent or surfactant or cyclodextrin, 1 % w/v Poloxamer Content), 342 µg/mL (≈ 990 µM); in series [3] (in water), “Very slightly soluble in water”. Besides, the Omeprazole solubility result in series [1] (at higher poloxamer 188 content (above 1% w/v)) is listed as “increased significantly”. Moreover, the “Impact of poloxamer 188 content on omeprazole solubility” value in series [1] (up to 1% w/v poloxamer 188) was “did not show any significant impact”. Moreover, the “Related Substance: Omeprazole F&G” value in series [2] turned out to be 0.031%. Also, the “Related Substance: Omeprazole sulphone N-Oxide” value in series [2] is “Not Detected”. Further, the “Related Substance: Total impurities” value in series [2] is listed as 0.05%. For the same compound, the “Related Substance: 5-Methoxy Benzamidazole 2 thiol” value in series [2] (LOQ (0.01%)) is on record as “Less than LOQ”. For the same compound, the “Related Substance: Desmethoxy Omeprazole” value in series [2] (LOQ (0.01%)) is “Less than LOQ”. For the same compound, the “Related Substance: Omeprazole 4-Chloro analog (IMP-H)” value in series [2] (LOQ (0.01%)) was “Less than LOQ”. Further, the “Related Substance: Omeprazole N-Oxide” value in series [2] (LOQ (0.01%)) was “Less than LOQ”. In addition, in series [2] (LOQ (0.01%)), the “Related Substance: Omeprazole Sulphide” value was “Less than LOQ”. Moreover, the “Related Substance: Omeprazole Sulphone (IMP-A)” value in series [2] (LOQ (0.01%)) was “Less than LOQ”. For the same compound, the Log P – broadly, the decadic logarithm of the partition coefficient of the neutral form, usually between octanol and water – in series [3] was 2.43. In addition, the P-gp inhibition effects result in series [4] was “does not have P-gp inhibition effects”. Further, the P-gp substrate entry in series [4] is listed as “moderate P-gp substrate”. In addition, the half-life (usually the time needed for the level to fall by half in the phase considered) in series [5] (in vivo) was 30 to 60 min. Besides, in series [5] (marketed formulations of omeprazole), the “Peak Plasma concentration, time to achieve” value is reported as “very rapidly”. Moreover, the “Polymorphic form conversion (PXRD)” value in series [6] was “no polymorphic form conversion”.
Turning to `CC(C)(C)NCC(O)COc1cccc2c1CC(O)C(O)C2` (centres unmarked) [nadolol], the “Effect of poloxamer on permeability” value in series [7] is reported as “didn't show a significant effect”.
